What was measured:
Format in all cases: in vivo, male Wistar rats
dopamine-β-hydroxylase [1] = assay: Determination of noradrenaline and dopamine levels of brain (dopamine-β-hydroxylase inhibiting effect)
Experimental: (§1) The dopamine-β-hydroxylase inhibiting effects of the new compounds according to the invention were examined by the following tests:
(§2) The tests were performed on male Wistar rats weighing 150 to 200 g. The dopamine-β-hydroxylase inhibiting effects of the compounds were evaluated by determining the change of noradrenaline, dopamine and adrenaline levels of the cerebrum, heart, spleen and adrenal gland. The serotonine and 5-hydroxy-indolylacetic acid levels of the cerebrum were also determined. The measurements were performed as follows:
(§3) The animals were decapitated, the cerebrum, heart, spleen and adrenal gland were removed quickly, and the organs were frozen by placing them onto a metal sheet cooled with dry ice. The frozen organs were stored for maximum one night at -20° C.
Determination of the noradrenaline, dopamine, serotonine and 5-hydroxy-indolylacetic acid contents of brain
The brains were homogenized in 10 parts by volume of 0.4 n perchloric acid. The homogenized mixture was stored at -20° C. overnight, thereafter it was thawed and centrifuged as described above. A sample of the homogenized mixture corresponding to 0.5 g of brain was removed, the pH of the sample was adjusted to 8.0±0.1 with 0.1 molar tris-buffer of the above composition, and the sample was processed as described above for the determination of the noradrenaline content of heart and spleen, with the difference that 1.5 ml of 0.05 n perchloric acid were applied as eluting agent. 0.5 ml of the eluate were applied to determine the noradrenaline and dopamine contents. The measurement was performed as described above, with the difference that samples of 0.5 ml were applied for the recording of the fluorescency of noradrenaline. The residua was placed for 50 minutes into a drying oven heated to 100° C., thereafter the sample was cooled with ice water, and the fluorescency of dopamine was recorded at wavelengths of 325 nm (excitation) and 380 nm (emission).
In a further test series the serotonine and 5-hydroxy-indolylacetic acid contents were also determined, beside the determination of the noradrenaline and dopamine content, from the same sample. In this instance the brains were homogenized in 10 ml of 75% ethanol, 0.2 ml of EDTA-Na2 and 5% of ascorbic acid were added to the homogenized mixtures, and the homogenized mixtures were maintained at -20° C. overnight. The mixtures were centrifuged as described above, and 5.0 ml samples of the supernatant were removed. The samples were diluted with equal volumes of distilled water, and poured onto ion exchange columns of 0.5×1.5 cm dimensions, filled with buffered Amberlite CG-30 (200 to 400 mesh). The columns were washed with 5 ml of distilled water followed by 1.0 ml of 0.2 n hydrochloric acid, and the first effluent and the aqueous wash were collected for the determination of 5-hydroxy-indolylacetic acid. Elution was continued with further 1.2 ml of 0.2 n hydrochloric acid in order to remove noradrenaline, dopamine and serotonine. Samples of 0.3 ml were used for the determinations.
Noradrenaline and dopamine were determined by the method of Shellenberger, modified as described above, whereas serotonine was determined by the method of Curzon et al. (Brit. J. Pharmacol. 39, 653/1970/). The basic method was modified as follows: A 0.5% solution of ortho-phthal(di)aldehyde in absolute ethanol was diluted with 10 n hydrochloric acid to 50-fold of its original volume, and 0.6 ml of the resulting 0.01% ortho-phthal(di)aldehyde solution were added immediately to 0.5 ml of the serotonine-containing sample. The sample was placed into a hot water bath for 10 minutes, thereafter cooled with tap water, and the fluorescency was recorded at wavelengths of 360 nm (excitation) and 490 nm (emission).
In the tests disulfiram, 2,2-dipyridyl, bis(1-methyl-4-homopiperazinyl-thriocaronyl)-disulfide, sodium diethyldithiocarbamate and N-phenyl-N'-(2-thiazolyl)-thiourea were applied as reference substances. […]

dopamine-β-hydroxylase [2] = assay: Determination of the noradrenaline content of heart; details: ± standard error
Experimental: as §1, §2, §3
(§4) Determination of the noradrenaline content of heart and spleen
(§5) The organs were weighed in frozen state and then homogenized in 5.0 ml of 0.4 n perchloric acid containing 0.05% of EDTA-Naa and 0.1% of Na2 S2 O5. The homogenized mixtures were centrifuged as described above for the treatment of adrenal gland, the supernatants were decanted, and the pH was adjusted to 8.0±0.1 with a 0.1 molar tris buffer containing 20 g/l of NaOH and 25 g/l of EDTA-Na2. 100 mg of prepared Al2 O3 (Anton et al.: J. Pharm. Ther. 138, 360/1962/) were added to the samples, and the mixtures were shaken mechanically for 20 minutes. Thereafter Al2 O3 was washed with 2×10 ml of distilled water, and noradrenaline was eluted with 1.0 ml of 0.05 n perchloric acid. 0.5 ml samples of the eluate were applied for the determination of noradrenaline. Noradrenaline was determined according to the method of Shellenberger et al. (Anal. Biochem. 39, 356/1971/), with the following modifications of the basic procedure: 0.5 ml of 0.1 molar Na-K-phosphate buffer, containing 9 g/l of EDTA-Na2, were added to 0.5 ml of the eluate, and the catecholamines (noradrenaline in the examination of heart and spleen and noradrenaline and dopamine in the examination of the cerebrum) were oxidized with 0.1 ml of a 0.1 n iodine solution in 5% potassium iodide. After exactly 2 minutes oxidation was stopped by adding 0.25 ml of a 2.5% sodium sulfite solution in 4.4 n aqueous sodium hydroxide to the mixture. 2 minutes after the introduction of the alkaline sulfite solution 0.2 ml of concentrated acetic acid were added to the samples, upon which the pH decreased to 4.4 to 4.5 Thereafter the samples were placed for 5 minutes into a drying oven heated to 100° C., and then the samples were cooled with ice water. The fluorescency of noradrenaline was measured with an OPTON spectrophotometer at wavelengths of 380 nm (excitation) and 490 nm (emission).
(§6) In the tests disulfiram, 2,2-dipyridyl, bis(1-methyl-4-homopiperazinyl-thriocaronyl)-disulfide, sodium diethyldithiocarbamate and N-phenyl-N'-(2-thiazolyl)-thiourea were applied as reference substances. The values indicated in Table 1 are the percentages in relation to the amine levels of the controls measured in the same tests (± standard error). The statistical calculations were performed on a TPA/i type computer, using Student's t test.

dopamine-β-hydroxylase [3] = assay: Determination of the noradrenaline content of spleen; details: ± standard error
Experimental: as §1, §2, §3, §4, §5, §6

dopamine-β-hydroxylase [4] = assay: Determination of the adrenaline content of adrenal gland; details: ± standard error
Experimental: as §1, §2, §3
Determination of the adrenaline content of adrenal gland
The adrenal glands were freed from fat and homogenized in 3.0 ml of ice-cold 0.4 n perchloric acid. The homogenized mixtures were centrifuged for 10 minutes at 0° C. with a speed of 3200 r.p.m. using a Janetzky K-70 type centrifuge. 0.05 ml samples were taken from the supernatant, and the adrenaline level was determined directly by the method of Laverty et al. (Anal. Biochem. 22, 269/1968/).
as §6

[5] = i.p., 100 mg/kg, 4 hours, ± standard error
[6] = i.p., 200 mg/kg, 4 hours, ± standard error
[7] = i.p., 200 mg/kg, 8 hours, ± standard error
[8] = p.o., 500 mg/kg, 4 hours, ± standard error
[9] = p.o., 500 mg/kg, 8 hours, ± standard error
[10] = i.p., 50 mg/kg, 4 hours, ± standard error
[11] = i.p., 400 mg/kg, time not given

SMILES	Brain DA (dopamine) level, percentages in relation to the controls (dopamine-β-hydroxylase [1]; [5])	Brain NA (noradrenaline) level, percentages in relation to the controls (dopamine-β-hydroxylase [1]; [5])	Brain DA (dopamine) level, percentages in relation to the controls (dopamine-β-hydroxylase [1]; [6])	Brain NA (noradrenaline) level, percentages in relation to the controls (dopamine-β-hydroxylase [1]; [6])	Brain DA (dopamine) level, percentages in relation to the controls (dopamine-β-hydroxylase [1]; [7])	Brain NA (noradrenaline) level, percentages in relation to the controls (dopamine-β-hydroxylase [1]; [7])	Brain DA (dopamine) level, percentages in relation to the controls (dopamine-β-hydroxylase [1]; [8])	Brain NA (noradrenaline) level, percentages in relation to the controls (dopamine-β-hydroxylase [1]; [8])	Heart NA (noradrenaline) level, percentages in relation to the controls (dopamine-β-hydroxylase [2]; i.p., 100 mg/kg, 4 hours)	Heart NA (noradrenaline) level, percentages in relation to the controls (dopamine-β-hydroxylase [2]; i.p., 200 mg/kg, 4 hours)	Heart NA (noradrenaline) level, percentages in relation to the controls (dopamine-β-hydroxylase [2]; i.p., 200 mg/kg, 8 hours)	Heart NA (noradrenaline) level, percentages in relation to the controls (dopamine-β-hydroxylase [2]; p.o., 500 mg/kg, 4 hours)	Spleen NA (noradrenaline) level, percentages in relation to the controls (dopamine-β-hydroxylase [3]; i.p., 200 mg/kg, 4 hours)	Spleen NA (noradrenaline) level, percentages in relation to the controls (dopamine-β-hydroxylase [3]; i.p., 200 mg/kg, 8 hours)	Adrenal gland AD (adrenaline) level, percentages in relation to the controls (dopamine-β-hydroxylase [4]; i.p., 100 mg/kg, 4 hours)	Adrenal gland AD (adrenaline) level, percentages in relation to the controls (dopamine-β-hydroxylase [4]; i.p., 200 mg/kg, 4 hours)	Adrenal gland AD (adrenaline) level, percentages in relation to the controls (dopamine-β-hydroxylase [4]; i.p., 200 mg/kg, 8 hours)	Adrenal gland AD (adrenaline) level, percentages in relation to the controls (dopamine-β-hydroxylase [4]; p.o., 500 mg/kg, 4 hours)	further results
COCCNC1=C(C(=S)SSC(=S)C2=C(NCCOC)CCC2)CCC1 [Compound M-4, 2-(N-methoxyethyl)-amino-cyclopent-1-ene-thiocarboxylic acid disulfide]	131.5±8.9%	41.9±2.7%	134.6±4.0%	39.6±4.9%	120.6±5.8%	28.5±1.4%	114.5±2.4%	73.6±2.8%	91.8±5.9%	91.7±9.2%	75.7±3.7%	86.3±10.1%	69.9±16.9%	61.9±9.9%	77.5±6.3%	96.3±6.7%	97.0±7.9%	96.3±6.0%	Brain DA (dopamine) level, percentages in relation to the controls (dopamine-β-hydroxylase [1]; [9]): 111.0±4.0%; Brain NA (noradrenaline) level, percentages in relation to the controls (dopamine-β-hydroxylase [1]; [9]): 51.2±2.8%; Heart NA (noradrenaline) level, percentages in relation to the controls (dopamine-β-hydroxylase [2]; p.o., 500 mg/kg, 8 hours): 74.0±8.4%; Spleen NA (noradrenaline) level, percentages in relation to the controls (dopamine-β-hydroxylase [3]; i.p., 100 mg/kg, 4 hours): 81.4±10.8%; Spleen NA (noradrenaline) level, percentages in relation to the controls (dopamine-β-hydroxylase [3]; p.o., 500 mg/kg, 4 hours): 103.1±18.9%; Spleen NA (noradrenaline) level, percentages in relation to the controls (dopamine-β-hydroxylase [3]; p.o., 500 mg/kg, 8 hours): 101.0±14.3%; Adrenal gland AD (adrenaline) level, percentages in relation to the controls (dopamine-β-hydroxylase [4]; p.o., 500 mg/kg, 8 hours): 88.1±5.1%
NC1=C(C(=S)SSC(=S)C2=C(N)CCC2)CCC1 [Compound M-1]	121.2±5.8%	69.5±12.1%	124.5±1.9%	56.7±5.9%	109.0±5.9%	56.5±6.3%			86.5±3.7%	82.5±5.4%	83.2±9.5%		92.6±12.4%	91.2±12.6%	87.2±6.7%	70.9±5.8%	60.2±3.2%		
CCCCNC1=C(C([O-])=S)CCC1.CCCCNC1=C(C([O-])=S)CCC1.[Zn+2] [Compound M-3, 2-(N-butyl)-amino-cyclopent-1-ene-thiocarboxylic acid-disulfide(zinc salt)]	121.3±6.1%	73.5±3.2%					99.2±5.0%	98.8±2.5%	91.5±8.1%			108.8±3.2%			60.5±3.6%			100.3±8.3%	Brain DA (dopamine) level, percentages in relation to the controls (dopamine-β-hydroxylase [1]; [10]): 112.2±12.0%; Brain NA (noradrenaline) level, percentages in relation to the controls (dopamine-β-hydroxylase [1]; [10]): 85.0±7.1%; Heart NA (noradrenaline) level, percentages in relation to the controls (dopamine-β-hydroxylase [2]; i.p., 50 mg/kg, 4 hours): 84.5±4.1%; Adrenal gland AD (adrenaline) level, percentages in relation to the controls (dopamine-β-hydroxylase [4]; i.p., 50 mg/kg, 4 hours): 66.3±5.5%
CCN(CC)C(=S)[S-].[Na+] [DDC-Na, sodium diethyldithiocarbamate, reference compound]																			Brain DA (dopamine) level, percentages in relation to the controls (dopamine-β-hydroxylase [1]; [11]): 120%; Brain NA (noradrenaline) level, percentages in relation to the controls (dopamine-β-hydroxylase [1]; [11]): 64.1%

Reference: US4200650A, “2-Amino-cyclopent-1-ene-1-thiocarboxylic acid-disulfides to treat noradrenergic malfunctions” (Richter Gedeon Vegyeszeti Gyar Rt., priority 1976, dated 1980)
